Numbers after ± are expanded uncertainties.

The results in this text go back to the NIST ThermoML archive (doi:10.1021/je700486g).

For the data set the following is noted: Crystal; visual observation.
On to `CC(=O)Oc1ccccc1C(=O)O` [2-acetoxybenzoic acid], for which the Normal melting temperature was 135.4 ± 1.1 °C.
Under `O=C(O)c1ccccc1O` [2-hydroxybenzoic acid] stands 159 ± 1 °C; under `O=C(O)c1ccccc1` [benzoic acid], 122 ± 1 °C; under `c1ccc2c(c1)-c1cccc3cccc-2c13` [fluoranthene], 108.4 ± 3 °C.
